What was measured:
Format in all cases: binding
BC2L-C [1] = biological target: T1, BC2L-C (Burkholderia cenocepacia, UniProt B4EH86); test: STD-NMR in the presence of Me-α-L-Fuc (no density in soaked crystals)
T1 construct: gene BCAM0185; N-terminal domain (BC2L-C-nt)

BC2L-C [2] = biological target: T1, BC2L-C; test: STD-NMR; thermal shift assay (about +[…] °C)
BC2L-C [3] = biological target: T1, BC2L-C; test: ITC; X-ray crystal structure ([…] Å, with Globo H); STD-NMR

T1 sequence (B4EH86 entry or part of it): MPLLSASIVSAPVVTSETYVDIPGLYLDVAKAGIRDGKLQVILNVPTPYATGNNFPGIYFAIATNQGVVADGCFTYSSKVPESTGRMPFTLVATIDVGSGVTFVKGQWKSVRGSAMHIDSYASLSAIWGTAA

In the case of `NC(CO)Cc1ccccc1` (stereo not drawn) [KL9], the “STD-NMR in the presence of Me-α-L-Fuc (no density in soaked crystals)” value (BC2L-C [1]) is reported as “confirming the binding event for the three fragments in the BC2L‐C‐nt/fucose complex”.
For `CO[C@@H]1O[C@@H](C)[C@@H](O)[C@@H](O)[C@@H]1O` [Methyl α-L-fucoside], the “STD-NMR; thermal shift assay (about +2 °C)” value (BC2L-C [2]) was “Me‐α‐L‐Fuc was initially tested alone in the experiment, verifying that it binds BC2L‐C‐nt”.
In the case of `Cc1nccn1-c1cccc(CN)c1` [KL3, 3‐(2‐Methyl‐1H‐imidazol‐1‐yl) benzylamine], the Kd (BC2L-C [3]) is reported as 877 µM.

From publication PMC8360069, “Prediction and Validation of a Druggable Site on Virulence Factor of Drug Resistant Burkholderia cenocepacia” (Chemistry (Weinheim an Der Bergstrasse, Germany), 2021)
